# Results as given in ChEMBL document CHEMBL5678816, “A Next-Generation TRK Kinase Inhibitor Overcomes Acquired Resistance to Prior TRK Kinase Inhibition in Patients with TRK Fusion-Positive Solid Tumors” (Cancer Discov, 2017).
# Calls of active or inactive are those of the source. The calls are words filed in the database; no cut-off is given here.
# Key:
# KM12 = assay: Inhibition of cell proliferation in TPM3-NTRK1 fusion positive human KM12 cells incubated for 72 hrs by DAPI staining based analysis; type: functional; conditions: KM12, 72 h
# SK-MEL-28 = assay: Inhibition of cell proliferation in human SK-MEL-28 cells upto 10 umol/L incubated for 72 hrs by DAPI staining based analysis; type: functional; conditions: dose <= 10.0 µmol/L
# FaDu = assay: Inhibition of cell proliferation in human FaDu cells upto 10 umol/L incubated for 72 hrs by DAPI staining based analysis; type: functional; conditions: dose <= 10.0 µmol/L
# NCI-H292 = assay: Inhibition of cell proliferation in human NCI-H292 cells upto 10 umol/L incubated for 72 hrs by DAPI staining based analysis; type: functional; conditions: dose <= 10.0 µmol/L
# NCI-H661 = assay: Inhibition of cell proliferation in human NCI-H661 cells upto 10 umol/L incubated for 72 hrs by DAPI staining based analysis; type: functional; conditions: dose <= 10.0 µmol/L
# CAL-27 = assay: Inhibition of cell proliferation in human CAL-27 cells upto 10 umol/L incubated for 72 hrs by DAPI staining based analysis; type: functional; conditions: dose <= 10.0 µmol/L
# U138-MG = assay: Inhibition of cell proliferation in human U138-MG cells upto 10 umol/L incubated for 72 hrs by DAPI staining based analysis; type: functional; conditions: dose <= 10.0 µmol/L
# [1] = Cmax in pediatric patient with recurrent ETV6-NTRK3-rearranged infantile fibrosarcoma at 100 mg administered twice a day as liquid formulation for 29 day by LC-MS/MS analysis; type: ADME; conditions: human, in vivo
# [2] = target: Tyrosine-protein kinase CSK (Homo sapiens) (UniProt P41240); assay: Inhibition of CSK (unknown origin) at 1 uM in presence of ATP relative to control; values are per cent of control
# [3] = target: Serine/threonine-protein kinase mTOR (Homo sapiens) (UniProt P42345); assay: Inhibition of MTOR (unknown origin) at 1 uM in presence of ATP relative to control; values are per cent of control
# [4] = target: Serine/threonine-protein kinase Chk1 (Homo sapiens) (UniProt O14757); assay: Inhibition of CHK1 (unknown origin) at 1 uM in presence of ATP relative to control; values are per cent of control
# [5] = target: Mitogen-activated protein kinase 1 (Homo sapiens) (UniProt P28482); assay: Inhibition of ERK2 (unknown origin) at 1 uM in presence of ATP relative to control; values are per cent of control
# [6] = target: Serine/threonine-protein kinase TAO1 (Homo sapiens) (UniProt Q7L7X3); assay: Inhibition of TAO1 (unknown origin) at 1 uM in presence of ATP relative to control; values are per cent of control
# [7] = target: Tyrosine-protein kinase JAK2 (Homo sapiens) (UniProt O60674); assay: Inhibition of JAK2 (unknown origin) at 1 uM in presence of ATP relative to control; values are per cent of control
# [8] = target: Angiopoietin-1 receptor (Homo sapiens) (UniProt Q02763); assay: Inhibition of Tie2 (unknown origin) at 1 uM in presence of ATP relative to control; values are per cent of control
# [9] = target: Serine/threonine-protein kinase MARK2 (Homo sapiens) (UniProt Q7KZI7); assay: Inhibition of MARK2 (unknown origin) at 1 uM in presence of ATP relative to control; values are per cent of control
# [10] = target: Testis-specific serine/threonine-protein kinase 2 (Homo sapiens) (UniProt Q96PF2); assay: Inhibition of TSSK2 (unknown origin) at 1 uM in presence of ATP relative to control; values are per cent of control
# Homo sapiens [11] = species on record: Homo sapiens; assay: Inhibition of CK1_y (unknown origin) at 1 uM in presence of ATP relative to control; values are per cent of control
# [12] = target: Dual specificity tyrosine-phosphorylation-regulated kinase 2 (Homo sapiens) (UniProt Q92630); assay: Inhibition of DYRK2 (unknown origin) at 1 uM in presence of ATP relative to control; values are per cent of control
# [13] = target: Ephrin type-A receptor 3 (Homo sapiens) (UniProt P29320); assay: Inhibition of EphA3 (unknown origin) at 1 uM in presence of ATP relative to control; values are per cent of control
# [14] = target: Fibroblast growth factor receptor 3 (Homo sapiens) (UniProt P22607); assay: Inhibition of FGFR3 (unknown origin) at 1 uM in presence of ATP relative to control; values are per cent of control
# [15] = target: Interleukin-1 receptor-associated kinase 1 (Homo sapiens) (UniProt P51617); assay: Inhibition of IRAK1 (unknown origin) at 1 uM in presence of ATP relative to control; values are per cent of control
# [16] = target: Protein kinase C zeta type (Homo sapiens) (UniProt Q05513); assay: Inhibition of PKCzeta (unknown origin) at 1 uM in presence of ATP relative to control; values are per cent of control
# [17] = target: Cyclin-dependent kinase 5/CDK5 activator 1 (Homo sapiens) (UniProt Q00535+Q15078); assay: Inhibition of CDK5/p35 (unknown origin) at 1 uM in presence of ATP relative to control; values are per cent of control
# [18] = target: Protein kinase C epsilon type (Homo sapiens) (UniProt Q02156); assay: Inhibition of PKCepsilon (unknown origin) at 1 uM in presence of ATP relative to control; values are per cent of control
# [19] = target: Cyclin-dependent kinase 2/cyclin E1 (Homo sapiens) (UniProt P24864+P24941); assay: Inhibition of CDK2/cyclinE (unknown origin) at 1 uM in presence of ATP relative to control; values are per cent of control
# [20] = target: Insulin receptor (Homo sapiens) (UniProt P06213); assay: Inhibition of Activated IR (unknown origin) at 1 uM in presence of ATP relative to control; values are per cent of control
# Homo sapiens [21] = species on record: Homo sapiens; assay: Inhibition of TEC Activated (unknown origin) at 1 uM in presence of ATP relative to control; values are per cent of control
# [22] = target: CDK7/Cyclin H/MNAT1 (Homo sapiens) (UniProt P51946+P50613+P51948); assay: Inhibition of CDK7/cyclinH/MAT1 (unknown origin) at 1 uM in presence of ATP relative to control; values are per cent of control
# Chain of Interleukin-1 receptor-associated kinase 1 (Homo sapiens) (P51617 whole entry, looked up): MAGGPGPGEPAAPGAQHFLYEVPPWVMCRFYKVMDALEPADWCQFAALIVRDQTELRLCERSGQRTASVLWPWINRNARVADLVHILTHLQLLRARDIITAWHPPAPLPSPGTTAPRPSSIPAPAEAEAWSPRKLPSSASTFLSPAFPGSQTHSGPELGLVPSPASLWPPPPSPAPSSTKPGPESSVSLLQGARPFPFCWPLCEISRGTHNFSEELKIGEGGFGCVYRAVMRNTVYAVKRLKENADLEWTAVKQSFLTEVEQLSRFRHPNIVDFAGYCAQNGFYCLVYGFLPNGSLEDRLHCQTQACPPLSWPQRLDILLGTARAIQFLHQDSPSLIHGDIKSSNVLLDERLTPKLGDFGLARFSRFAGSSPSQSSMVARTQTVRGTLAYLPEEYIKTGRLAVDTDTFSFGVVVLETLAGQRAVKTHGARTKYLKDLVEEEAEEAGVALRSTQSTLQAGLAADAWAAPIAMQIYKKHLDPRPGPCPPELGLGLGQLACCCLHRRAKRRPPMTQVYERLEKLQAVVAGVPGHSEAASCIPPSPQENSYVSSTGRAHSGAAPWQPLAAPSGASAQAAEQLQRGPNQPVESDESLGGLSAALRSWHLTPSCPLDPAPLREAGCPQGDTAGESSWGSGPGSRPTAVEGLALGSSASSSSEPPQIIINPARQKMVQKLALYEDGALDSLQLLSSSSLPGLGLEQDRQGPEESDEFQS
# Chain of Serine/threonine-protein kinase MARK2 (Homo sapiens) (Q7KZI7 whole entry): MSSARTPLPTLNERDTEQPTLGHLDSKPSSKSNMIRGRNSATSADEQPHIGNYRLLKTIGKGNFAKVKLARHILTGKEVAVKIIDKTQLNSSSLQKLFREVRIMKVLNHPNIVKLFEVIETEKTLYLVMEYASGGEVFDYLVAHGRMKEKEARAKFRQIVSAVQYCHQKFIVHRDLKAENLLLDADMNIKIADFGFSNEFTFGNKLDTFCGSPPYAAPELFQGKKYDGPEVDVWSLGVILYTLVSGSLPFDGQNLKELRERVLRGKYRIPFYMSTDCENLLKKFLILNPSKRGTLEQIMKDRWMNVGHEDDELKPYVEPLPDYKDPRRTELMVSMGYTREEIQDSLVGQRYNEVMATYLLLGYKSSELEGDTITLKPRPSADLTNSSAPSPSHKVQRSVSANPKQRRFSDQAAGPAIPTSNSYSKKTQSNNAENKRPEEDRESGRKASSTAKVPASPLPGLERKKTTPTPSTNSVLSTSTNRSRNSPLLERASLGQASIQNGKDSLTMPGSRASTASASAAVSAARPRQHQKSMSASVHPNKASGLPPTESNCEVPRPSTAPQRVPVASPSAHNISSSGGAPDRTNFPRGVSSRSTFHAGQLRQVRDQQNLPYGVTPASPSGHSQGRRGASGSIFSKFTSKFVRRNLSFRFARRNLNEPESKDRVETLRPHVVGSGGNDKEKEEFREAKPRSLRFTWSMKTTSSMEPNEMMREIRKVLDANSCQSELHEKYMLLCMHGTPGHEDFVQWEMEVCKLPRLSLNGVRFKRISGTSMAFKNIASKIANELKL
# Chain of Angiopoietin-1 receptor (Homo sapiens) (Q02763 whole entry): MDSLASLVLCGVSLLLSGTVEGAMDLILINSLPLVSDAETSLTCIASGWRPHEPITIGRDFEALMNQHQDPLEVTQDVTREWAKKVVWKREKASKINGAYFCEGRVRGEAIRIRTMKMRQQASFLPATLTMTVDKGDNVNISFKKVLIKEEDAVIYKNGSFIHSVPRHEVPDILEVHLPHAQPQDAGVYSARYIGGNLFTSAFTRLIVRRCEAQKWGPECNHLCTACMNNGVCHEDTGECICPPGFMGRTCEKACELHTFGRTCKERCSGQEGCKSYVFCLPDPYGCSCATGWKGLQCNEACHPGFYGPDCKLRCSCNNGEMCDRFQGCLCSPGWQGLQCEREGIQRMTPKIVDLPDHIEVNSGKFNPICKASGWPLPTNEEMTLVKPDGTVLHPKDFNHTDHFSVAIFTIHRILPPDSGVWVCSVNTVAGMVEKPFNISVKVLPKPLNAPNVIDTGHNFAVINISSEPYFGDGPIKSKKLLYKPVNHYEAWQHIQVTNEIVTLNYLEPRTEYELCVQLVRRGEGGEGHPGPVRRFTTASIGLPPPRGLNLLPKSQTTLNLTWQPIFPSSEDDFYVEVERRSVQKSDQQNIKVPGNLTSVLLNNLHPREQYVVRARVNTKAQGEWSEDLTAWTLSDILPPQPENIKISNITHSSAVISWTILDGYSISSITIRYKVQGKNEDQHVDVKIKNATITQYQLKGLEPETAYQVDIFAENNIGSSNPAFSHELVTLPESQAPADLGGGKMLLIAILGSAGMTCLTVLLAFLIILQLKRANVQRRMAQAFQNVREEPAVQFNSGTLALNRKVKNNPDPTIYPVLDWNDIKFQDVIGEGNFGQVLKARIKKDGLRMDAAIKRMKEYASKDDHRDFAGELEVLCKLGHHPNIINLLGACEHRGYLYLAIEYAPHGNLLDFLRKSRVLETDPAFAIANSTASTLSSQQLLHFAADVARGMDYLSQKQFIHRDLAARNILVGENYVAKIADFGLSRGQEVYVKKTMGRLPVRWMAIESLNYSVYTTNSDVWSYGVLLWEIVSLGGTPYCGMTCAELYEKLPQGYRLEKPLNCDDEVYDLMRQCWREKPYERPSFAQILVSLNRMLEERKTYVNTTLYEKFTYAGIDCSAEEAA
# Chain of Dual specificity tyrosine-phosphorylation-regulated kinase 2 (Homo sapiens) (Q92630 whole entry): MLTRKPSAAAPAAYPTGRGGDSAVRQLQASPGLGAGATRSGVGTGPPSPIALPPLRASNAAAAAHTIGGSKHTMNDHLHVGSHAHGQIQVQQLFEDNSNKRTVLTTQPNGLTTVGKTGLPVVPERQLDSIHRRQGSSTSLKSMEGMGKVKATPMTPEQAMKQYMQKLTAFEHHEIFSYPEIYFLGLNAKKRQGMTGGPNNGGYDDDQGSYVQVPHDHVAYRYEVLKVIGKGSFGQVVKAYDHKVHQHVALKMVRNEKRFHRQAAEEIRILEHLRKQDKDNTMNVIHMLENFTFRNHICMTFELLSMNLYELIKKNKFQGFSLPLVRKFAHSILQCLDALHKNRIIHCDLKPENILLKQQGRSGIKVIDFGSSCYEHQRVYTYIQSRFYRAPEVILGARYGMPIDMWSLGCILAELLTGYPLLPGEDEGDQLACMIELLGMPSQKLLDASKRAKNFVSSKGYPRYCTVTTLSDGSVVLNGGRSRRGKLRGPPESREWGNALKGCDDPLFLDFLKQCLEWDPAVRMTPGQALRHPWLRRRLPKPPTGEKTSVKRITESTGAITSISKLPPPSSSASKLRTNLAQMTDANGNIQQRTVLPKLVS
# Chain of Cyclin-dependent kinase 5/CDK5 activator 1 (Homo sapiens) (Q00535 whole entry): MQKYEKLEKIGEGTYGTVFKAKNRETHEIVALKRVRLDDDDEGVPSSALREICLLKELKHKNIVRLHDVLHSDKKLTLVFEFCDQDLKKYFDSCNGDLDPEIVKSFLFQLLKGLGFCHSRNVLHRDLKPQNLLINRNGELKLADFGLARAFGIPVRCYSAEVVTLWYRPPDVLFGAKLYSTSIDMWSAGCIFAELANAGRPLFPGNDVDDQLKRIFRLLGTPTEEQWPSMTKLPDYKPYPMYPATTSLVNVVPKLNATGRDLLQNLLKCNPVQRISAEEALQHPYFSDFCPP
# Chain of Cyclin-dependent kinase 5/CDK5 activator 1 (Homo sapiens) (Q15078 99-307 partner limits assumed): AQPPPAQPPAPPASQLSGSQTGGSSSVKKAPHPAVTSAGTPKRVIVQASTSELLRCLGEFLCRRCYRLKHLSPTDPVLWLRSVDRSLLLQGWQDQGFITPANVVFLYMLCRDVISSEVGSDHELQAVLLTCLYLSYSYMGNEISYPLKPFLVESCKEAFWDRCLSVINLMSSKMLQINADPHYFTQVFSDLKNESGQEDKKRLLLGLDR
# Chain of Fibroblast growth factor receptor 3 (Homo sapiens) (P22607 23-806 limits assumed): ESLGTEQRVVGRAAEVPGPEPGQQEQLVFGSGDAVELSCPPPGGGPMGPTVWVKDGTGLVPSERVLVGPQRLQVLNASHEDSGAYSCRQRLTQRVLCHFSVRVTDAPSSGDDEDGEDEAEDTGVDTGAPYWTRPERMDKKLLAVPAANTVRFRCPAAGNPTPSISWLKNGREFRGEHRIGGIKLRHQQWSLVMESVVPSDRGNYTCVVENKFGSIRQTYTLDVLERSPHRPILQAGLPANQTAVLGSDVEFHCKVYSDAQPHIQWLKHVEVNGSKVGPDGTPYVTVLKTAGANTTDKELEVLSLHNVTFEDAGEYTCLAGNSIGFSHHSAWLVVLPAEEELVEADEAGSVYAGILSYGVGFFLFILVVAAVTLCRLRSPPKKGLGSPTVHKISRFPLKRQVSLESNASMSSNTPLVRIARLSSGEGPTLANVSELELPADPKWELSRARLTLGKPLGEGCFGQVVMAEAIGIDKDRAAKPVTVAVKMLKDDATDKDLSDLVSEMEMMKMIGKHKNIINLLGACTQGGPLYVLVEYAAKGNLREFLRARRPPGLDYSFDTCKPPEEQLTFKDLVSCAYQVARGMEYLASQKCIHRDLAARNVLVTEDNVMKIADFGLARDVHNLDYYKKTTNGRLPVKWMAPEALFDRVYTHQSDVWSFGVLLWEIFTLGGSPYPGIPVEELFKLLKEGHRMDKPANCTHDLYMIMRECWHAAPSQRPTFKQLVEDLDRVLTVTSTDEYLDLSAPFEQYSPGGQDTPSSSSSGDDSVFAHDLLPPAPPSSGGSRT
# Chain of Serine/threonine-protein kinase Chk1 (Homo sapiens) (O14757 whole entry): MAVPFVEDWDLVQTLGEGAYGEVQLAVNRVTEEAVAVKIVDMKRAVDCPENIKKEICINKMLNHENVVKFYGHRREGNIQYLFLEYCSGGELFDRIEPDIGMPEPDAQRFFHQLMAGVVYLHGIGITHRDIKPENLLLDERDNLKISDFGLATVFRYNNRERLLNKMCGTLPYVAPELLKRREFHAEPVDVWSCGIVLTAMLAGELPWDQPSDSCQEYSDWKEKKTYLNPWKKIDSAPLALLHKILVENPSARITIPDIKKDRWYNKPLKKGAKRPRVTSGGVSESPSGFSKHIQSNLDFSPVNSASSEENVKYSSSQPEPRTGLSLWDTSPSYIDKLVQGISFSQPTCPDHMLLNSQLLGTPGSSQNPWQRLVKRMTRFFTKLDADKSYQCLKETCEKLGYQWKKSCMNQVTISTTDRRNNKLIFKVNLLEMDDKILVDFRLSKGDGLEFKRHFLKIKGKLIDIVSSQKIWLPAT
smiles,measurement,setting,value
C[C@@H]1CCc2ncc(F)cc2[C@H]2CCCN2c2ccn3ncc(c3n2)C(=O)N1 [SELITRECTINIB],IC50,KM12,≤ 5 nM
same,inhibition,SK-MEL-28,inactive
same,inhibition,FaDu,inactive
same,inhibition,NCI-H292,inactive
same,inhibition,NCI-H661,inactive
same,inhibition,CAL-27,inactive
same,inhibition,U138-MG,inactive
same,Cmax,[1],776 ng/mL
same,residual activity,[2],112%
same,residual activity,[3],95%
same,residual activity,[4],109%
same,residual activity,[5],105%
same,residual activity,[6],102%
same,residual activity,[7],37.5%
same,residual activity,[8],119%
same,residual activity,[9],107%
same,residual activity,[10],120%
same,residual activity,Homo sapiens [11],114%
same,residual activity,[12],102%
same,residual activity,[13],104%
same,residual activity,[14],119%
same,residual activity,[15],106%
same,residual activity,[16],106%
same,residual activity,[17],110%
same,residual activity,[18],102%
same,residual activity,[19],106%
same,residual activity,[20],97%
same,residual activity,Homo sapiens [21],112%
same,residual activity,[22],108%
